Reference: patent US20200345725A1, “Methods and Compositions for Treating Cancer” (Omeros Corporation, priority 2019, published 2020)
Where “and” joins values, the source holds several entries; their conditions need not be identical. Identical values can stand only once.

Experiments:
GPR174 = GPR174 (Homo sapiens, UniProt Q9BXC1); test: CRE-Luc reporter Gs signaling assay with GPR174; format: cell-based; design: host or cells: HEK293 or CHO cell lines (ATCC); settings: for Gs pathway in the presence of GPR174 (CRE-Luc reporter): increasing concentrations of compound; for Fold decrease in Gs signaling activity / EC50: pCRE-Luc reporter; for EC50: multiple values = separate experiments
human PBMCs = test: Cytokines in supernatants of anti-CD3/anti-CD28 stimulated human PBMC (Examples 6, 8, 9); format: cell-based; settings: for IL-2 in culture supernatants (fold over vehicle): day 2 post-stimulation, compound 10 at 1, 3, 10 μM
Procedure: The effect of compound 10 on IL-2 and IFN-γ production in human PBMCs was determined as follows. PBMCs from a single donor were adjusted to a density of 2×10^6 cells/mL, stimulated with 100 ng/mL of anti-CD3 and 100 ng/mL of anti-CD28 antibodies and treated with 1 μM, 3 μM, or 10 μM of compound 10. Supernatant from these cells was taken on day 2 post-stimulation and the levels of IL-2 and IFN-γ were determined by ELISA assay using Ready-SET-Go ELISA kits from Affimetrix Ebioscience according to the manufacturer's instructions.
The effect of compound 10 on IL-2 production in human PBMCs was determined as follows. […] Supernatant from these cells was taken on day 3 post-stimulation and the levels of IL-2 were determined by ELISA assay using Ready-SET-Go™ ELISA kits from Affimetrix Ebioscience and LEGENDplex™ bead-based immunoassays from BioLegend according to the manufacturer's instructions.
The effect of compound 10 on IL-2 production in human PBMC from each donor was determined as follows. PBMC from each donor were adjusted to a density of 2×10^6 cells/mL, stimulated with 100 ng/mL of anti-CD3 and 100 ng/mL of anti-CD28 antibodies and treated with 30 μM compound 10. Supernatant from these cells was taken on day 2 post-stimulation and the levels of IL-2 were determined by ELISA assay using LEGENDplex™ bead-based immunoassays from BioLegend (San Diego, Calif.) according to the manufacturer's instructions.
The effect of compound 10 on the production of a panel of additional cytokines (interleukin 5 (IL-5), interleukin 13 (IL-13), interleukin 6 (IL-6), interleukin 9 (IL-9), interleukin 10 (IL-10), interferon gamma (IFN-γ), tumor necrosis factor alpha (TNF-α), interleukin 17A (IL-17A), interleukin 17F (IL-17F), interleukin 4 (IL-4) and interleukin 22 (IL-22)) in pooled human PBMC obtained from eight donors was determined as follows. PBMC from eight donors were pooled, then adjusted to a density of 2×10^6 cells/mL, stimulated with 100 ng/mL of anti-CD3 and 100 ng/mL of anti-CD28 antibodies and treated with 30 μM compound 10. Supernatant from these cells was taken on day 2 post-stimulation and the levels of IL-5, IL-13, IL-6, IL-9, IL-10, IFN-γ, TNF-α, IL-17A, IL-17F, IL-4 and […] were determined by ELISA using LEGENDplex™ bead-based immunoassays from BioLegend (San Diego, Calif.) according to the manufacturer's instructions.

[1] = Example 9, day 2, PBMC of eight donors, 30 μM

Chain of GPR174 (Q9BXC1 whole entry): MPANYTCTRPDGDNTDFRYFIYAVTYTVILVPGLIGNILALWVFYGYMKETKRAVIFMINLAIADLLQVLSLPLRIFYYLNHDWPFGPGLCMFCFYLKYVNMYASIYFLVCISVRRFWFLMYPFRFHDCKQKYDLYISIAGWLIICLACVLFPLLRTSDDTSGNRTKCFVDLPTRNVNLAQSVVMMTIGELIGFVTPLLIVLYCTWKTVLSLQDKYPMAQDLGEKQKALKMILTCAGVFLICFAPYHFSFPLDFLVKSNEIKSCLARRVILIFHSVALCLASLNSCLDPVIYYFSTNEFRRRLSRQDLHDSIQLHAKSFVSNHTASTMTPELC

| SMILES | Gs pathway in the presence of GPR174 (CRE-Luc reporter) (GPR174) | Fold decrease in Gs signaling activity (GPR174) | EC50 (GPR174) | IFN-γ in culture supernatants, fold over vehicle (human PBMCs; Example 6, day 2, 1, 3, 10 μM) | IL-2 in culture supernatants (fold over vehicle) (human PBMCs; Example 6) | IL-2 in culture supernatants (human PBMCs; Example 8, day 3, single donor, 3, 10, 30, 60 μM) | IFN-γ in culture supernatants, fold over vehicle (human PBMCs; [1]) | IL-6 in culture supernatants, fold over vehicle (human PBMCs; [1]) | IL-10 in culture supernatants, fold over vehicle (human PBMCs; [1]) | IL-17A in culture supernatants, fold over vehicle (human PBMCs; [1]) | TNF-α in culture supernatants, fold over vehicle (human PBMCs; [1]) | IL-2 in culture supernatants, fold over vehicle, average (human PBMCs; Example 9, day 2, eight donors, 30 μM) |
| --- | --- | --- | --- | --- | --- | --- | --- | --- | --- | --- | --- | --- |
| CC1CCN(c2cc(N3CCN(S(=O)(=O)c4ccccc4)CC3)c([N+](=O)[O-])cc2F)CC1 [compound 10] | inhibited | 5.1 fold | 200 nM and 500 nM | increased interferon gamma (IFN-γ) in a dose-dependent manner | increased IL-2 levels in a dose-dependent manner | increased IL-2 levels in culture supernatants in a dose-dependent manner | statistically significant fold increase | statistically significant fold increase | statistically significant fold increase | statistically significant fold decrease | statistically significant fold increase | about 5 fold |
| O=C(c1ccccc1)N1CCN(c2cc(N3CCCCC3)c(F)cc2[N+](=O)[O-])CC1 [compound 6] | inhibited | 3.8 fold | 400 nM and 300 nM |  | increased IL-2 levels |  |  |  |  |  |  |  |
